Assay results reported in ChEMBL document CHEMBL2074003, “Transport of somatostatin and substance P by human P-glycoprotein” (FEBS Lett, 2004).

Columns and labels:
[1] = target: T1, ATP-dependent translocase ABCB1 (Homo sapiens, UniProt P08183); experiment: TP_TRANSPORTER: uptake in membrane vesicles prepared from human MDR1 transfected KB3-1 cells; assay type: functional, cell membranes, Membrane vesicle; conditions: kb 3-1
[2] = target: T1, ATP-dependent translocase ABCB1; experiment: TP_TRANSPORTER: uptake in membrane vesicles prepared from K562/ADM cells; assay type: functional, cell membranes, Membrane vesicle; conditions: k562/adr

T1 sequence (P08183 whole entry): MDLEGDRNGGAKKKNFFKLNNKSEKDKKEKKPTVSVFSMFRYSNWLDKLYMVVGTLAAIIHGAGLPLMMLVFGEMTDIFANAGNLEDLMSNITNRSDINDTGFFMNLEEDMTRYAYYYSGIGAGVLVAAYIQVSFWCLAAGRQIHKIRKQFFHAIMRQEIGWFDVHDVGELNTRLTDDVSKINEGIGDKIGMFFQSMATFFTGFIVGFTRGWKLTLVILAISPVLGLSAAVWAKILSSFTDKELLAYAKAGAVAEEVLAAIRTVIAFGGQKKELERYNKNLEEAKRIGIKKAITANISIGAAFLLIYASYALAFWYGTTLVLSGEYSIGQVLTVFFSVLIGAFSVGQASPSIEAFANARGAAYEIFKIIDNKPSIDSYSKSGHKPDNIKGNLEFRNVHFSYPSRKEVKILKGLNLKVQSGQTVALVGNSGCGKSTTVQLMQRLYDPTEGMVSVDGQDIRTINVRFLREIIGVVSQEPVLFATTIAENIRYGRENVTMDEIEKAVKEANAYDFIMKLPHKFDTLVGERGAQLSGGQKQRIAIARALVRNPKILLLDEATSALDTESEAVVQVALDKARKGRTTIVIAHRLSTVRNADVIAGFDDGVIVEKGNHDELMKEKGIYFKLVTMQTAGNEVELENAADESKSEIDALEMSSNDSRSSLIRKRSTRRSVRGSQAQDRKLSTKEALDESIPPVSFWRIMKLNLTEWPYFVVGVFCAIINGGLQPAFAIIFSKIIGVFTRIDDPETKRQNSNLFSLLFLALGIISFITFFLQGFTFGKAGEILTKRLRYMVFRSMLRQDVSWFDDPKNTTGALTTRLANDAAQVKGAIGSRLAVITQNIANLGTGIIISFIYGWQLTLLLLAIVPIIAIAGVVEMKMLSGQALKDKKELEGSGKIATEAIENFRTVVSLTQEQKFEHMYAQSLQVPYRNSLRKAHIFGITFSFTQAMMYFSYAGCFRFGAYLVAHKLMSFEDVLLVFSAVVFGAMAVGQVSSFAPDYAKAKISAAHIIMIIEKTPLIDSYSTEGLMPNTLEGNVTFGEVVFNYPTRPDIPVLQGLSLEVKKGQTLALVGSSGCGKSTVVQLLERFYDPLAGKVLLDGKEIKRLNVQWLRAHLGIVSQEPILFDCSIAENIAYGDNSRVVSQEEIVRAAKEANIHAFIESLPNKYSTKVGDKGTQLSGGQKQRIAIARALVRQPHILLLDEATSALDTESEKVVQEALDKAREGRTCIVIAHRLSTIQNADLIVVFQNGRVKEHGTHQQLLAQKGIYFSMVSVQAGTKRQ

Compound	Activity [1]	Activity [2]
CSCC[C@H](NC(=O)[C@H](CC(C)C)NC(=O)CNC(=O)[C@H](Cc1ccccc1)NC(=O)[C@H](Cc1ccccc1)NC(=O)[C@H](CCC(N)=O)NC(=O)[C@H](CCC(N)=O)NC(=O)[C@@H]1CCCN1C(=O)[C@H](CCCCN)NC(=O)[C@@H]1CCCN1C(=O)[C@@H](N)CCCN=C(N)N)C(N)=O [SUBSTANCE P]	substrate [+]	substrate [+]
C[C@H](N)C(=O)NCC(=O)N[C@H]1CSSC[C@@H](C(=O)O)NC(=O)[C@H](CO)NC(=O)[C@H]([C@@H](C)O)NC(=O)[C@H](Cc2ccccc2)NC(=O)[C@H]([C@@H](C)O)NC(=O)[C@H](CCCCN)NC(=O)[C@H](Cc2c[nH]c3ccccc23)NC(=O)[C@H](Cc2ccccc2)NC(=O)[C@H](Cc2ccccc2)NC(=O)[C@H](CC(N)=O)NC(=O)[C@H](CCCCN)NC1=O [SOMATOSTATIN]	substrate [+]	substrate [+]
